Experimental data taken from BindingDB's records for doi:10.1016/j.bmc.2021.116215 (Research Triangle Institute, 2021).

Target: Cannabinoid receptor 1 (Homo sapiens, UniProt P21554)
Experiment: Allosteric antagonist activity at human CB1 receptor expressed in CHO-RD-HGA16 cells overexpressing Galpha16 assessed as inhibition of CP55940-stimulated calcium mobilization preincubated for 15 mins followed by agonist addition and measured every 1 sec for 90 secs by Calcium-3 dye based FLIPR assay

Chain of Cannabinoid receptor 1 (P21554 whole entry): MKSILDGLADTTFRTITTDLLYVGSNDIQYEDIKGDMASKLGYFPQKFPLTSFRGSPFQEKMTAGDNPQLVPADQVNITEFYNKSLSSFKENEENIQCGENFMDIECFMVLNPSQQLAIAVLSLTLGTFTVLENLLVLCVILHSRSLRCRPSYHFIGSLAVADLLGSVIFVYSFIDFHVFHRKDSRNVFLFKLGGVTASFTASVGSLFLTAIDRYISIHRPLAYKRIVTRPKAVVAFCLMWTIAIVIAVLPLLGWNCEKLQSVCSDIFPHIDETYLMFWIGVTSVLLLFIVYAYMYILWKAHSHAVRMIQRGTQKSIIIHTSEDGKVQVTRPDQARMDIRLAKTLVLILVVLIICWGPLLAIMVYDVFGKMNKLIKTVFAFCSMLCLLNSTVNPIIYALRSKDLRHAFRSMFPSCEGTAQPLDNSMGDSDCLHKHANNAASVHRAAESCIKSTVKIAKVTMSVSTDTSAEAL

**Q.** With `O=C(NC[C@H]1C[C@@H]1c1ccccc1)Nc1ccc(Cl)cc1` as the molecule, how does the IC50 read?
**A.** 2510 nM
